Source: paper PMC5581522 (Cancer Science, 2017)
Entries after “also recorded” stand apart in the source; their conditions may differ. Like-named read-outs stand apart in the source and are kept apart here. Marks after values point to notes of the source that are not given here.

Assays:
[1] = Plasma pharmacokinetics, cycle 1 day 1, noncompartmental; assay type: in vivo, Japanese patients; details: for half-life / AUC(0-inf) / Cmax / AUC(0-t): human, plasma; for half-life: harmonic mean ± pseudo SD; for AUC(0-inf) / Cmax / AUC(0-t): mean ± SD; for AUC(0-t): read-out: AUC0–8
Text: Noncompartmental methods were used to determine the maximum observed plasma concentration (C max), the time to C max (T max), the area under the plasma concentration‐time curve (AUC), and terminal elimination half‐life (t 1/2).

[2] = Phase 1 tolerability and safety (DLT, TEAEs, NCI CTCAE v4.0); assay type: in vivo, Japanese patients
Protocol: Eligible patients were assigned to one of two treatment groups (dose levels). […] Three to six patients were enrolled in each treatment group. Dose escalation was carried out according to a 3 + 3 design to define dose‐limiting toxicities (DLTs), and the maximum administered dose/recommended phase 2 dose (RP2D). […] Patients received treatment for a maximum of 30 cycles or until treatment discontinuation. […] Treatment could be postponed for up to 28 days due to toxicity; longer toxicity‐related delays would lead to study discontinuation.
The maximum tolerated dose (MTD) was defined as the highest dose level at which fewer than two of total six patients or <33% of patients (if the cohort was expanded beyond six patients) experienced a DLT. The RP2D was determined based on the observed DLTs and identified MTD; RP2D would not be dosed higher than the MTD. If the MTD was not reached, the RP2D was defined based on the safety and PK data. Prophylactic use of antiemetics and colony‐stimulating factors was not permitted during the DLT‐evaluation period, in order to clearly define the safety profile in Japanese patients.
The safety of each treatment group was assessed by evaluating study drug exposure, AEs, serious AEs (SAEs), all deaths, changes in laboratory determinations, and vital signs parameters. […] AEs were assessed according to the NCI CTCAE version 4.0.29 An independent data monitoring committee reviewed safety data for DLT evaluation.

BRCA‐mutated tumors = details: phase 1, single agent; cited from earlier work
[3] = test system: cancer antigen 125 (CA‐125); experiment: CA-125 tumor marker response (GCIG definition); assay type: in vivo, Japanese patients
Protocol: All enrolled patients with ovarian cancer or peritoneal cancer had measurements of cancer antigen 125 (CA‐125) on day 1 of cycle 1, every cycle (28 days) thereafter, and at the final visit. CA‐125 response was measured according to the Gynecologic Cancer InterGroup (GCIG) CA‐125 response definition.31

[4] = test system: recurrent ovarian cancer and germline BRCA1 and BRCA2 mutations; details: cited from earlier work
advanced solid tumors = experiment: Preliminary antitumor efficacy (RECIST version 1.1, TTP); assay type: in vivo, Japanese patients; details: for ORR: measurable disease
Protocol: To determine preliminary antitumor efficacy, baseline radiographic tumor assessments were conducted within 3 weeks prior to registration and thereafter every 8 weeks from cycle 1 day 1 and at the final visit, using the Response Evaluation Criteria In Solid Tumors (RECIST) version 1.1.30 In addition, the investigator evaluated the patient for evidence of clinical disease progression at each visit. Changes in measurable tumor lesions were assessed to determine the response rate, defined as proportion of patients with complete response (CR) or partial response (PR), and time to progression (TTP), defined as the number of days from the date the patient was dosed to the date the patient experienced an event of progressive disease (PD). […] Changes from baseline in performance status were analyzed.
Unless otherwise noted, for all statistical analyses, statistical significance was determined by a two‐sided P‐value ≤0.05. Descriptive statistics were used to describe baseline demographic variables, and summary statistics were computed for PK variables at each sampling time. PK variables were determined per patient and dose level. The safety of veliparib was assessed by evaluating veliparib exposure, AEs, SAEs, all deaths, and changes in laboratory determinations and vital sign parameters. The proportion of patients with CR or PR was estimated with a 95% confidence interval (CI) constructed for the estimated proportion. The distribution of TTP was estimated using Kaplan‐Meier methodology.

[5] = 200 mg oral, cycle 1 day 1, n = 4
[6] = 400 mg oral, cycle 1 day 1, n = 9
[7] = 400 mg oral, cycle 1 day 1, n = 12
[8] = 14 patients with measurable disease

SMILES: C[C@]1(c2nc3c(C(N)=O)cccc3[nH]2)CCCN1 [veliparib]
- half-life [1, 5]: 276 ± 66 min
- AUC(0-inf) [1, 5]: 13600 ± 6240 ng·h/mL
- Cmax [1, 5]: 2060 ± 1390 ng/mL
- AUC(0-t) [1, 5]: 8890 ± 3770 ng·h/mL
- half-life [1, 6]: 276 ± 78 min
- AUC(0-inf) [1, 6]: 29500 ± 9820 ng·h/mL
- Cmax [1, 7]: 3280 ± 1040 ng/mL
- AUC(0-t) [1, 7]: 16600 ± 3590 ng·h/mL
- increase of C max and AUC with dose ([1]; single‐dose oral 200 mg and 400 mg): dose‐proportional
- AEs / toxicities leading to death ([2]; all patients): No toxicities leading to death; also recorded: no AEs or SAEs leading to death
- patients who discontinued treatment due to AEs/toxicity ([2]; human, in vivo): 6%
- patients with a grade ≥3 AE / toxicity ([2]; human, in vivo): 50%
- patients with abdominal pain ([2]; human, in vivo): 31.3%
- patients with at least one grade ≥1 TEAE ([2]; human, in vivo): 100%
- patients with decreased appetite ([2]; human, in vivo): 62.5%
- patients with diarrhea ([2]; human, in vivo): 31.3%
- patients with dysgeusia ([2]; human, in vivo): 31.3%
- patients with fatigue ([2]; human, in vivo): 25%
- patients with insomnia ([2]; human, in vivo): 25%
- patients with malaise ([2]; human, in vivo): 31.3%
- patients with nausea ([2]; human, in vivo): 93.8%
- patients with neutropenia ([2]; human, in vivo): 25%
- patients with thrombocytopenia ([2]; human, in vivo): 25%
- patients with vomiting ([2]; human, in vivo): 93.8%
- recommended phase 2 dose (RP2D) ([2]; human, in vivo, po, 28 days): 400 mg BID
- anemia leading to dose interruption, reduction, or delay ([2]; in vivo): one patient
- decreased appetite leading to dose interruption, reduction, or delay ([2]; in vivo): one patient
- essential tremor leading to dose interruption, reduction, or delay ([2]; in vivo): one patient
- fatigue leading to dose interruption, reduction, or delay ([2]; in vivo): three patients
- nausea leading to dose interruption, reduction, or delay ([2]; in vivo): three patients
- neutropenia leading to dose interruption, reduction, or delay ([2]; in vivo): three patients
- patients experiencing a SAE ([2]; in vivo): two patients
- patients with a dose‐limiting toxicity (DLT) ([2]; in vivo): one patient
- thrombocytopenia leading to dose interruption, reduction, or delay ([2]; in vivo): three patients
- vomiting leading to dose interruption, reduction, or delay ([2]; in vivo): two patients
- clinical benefit rate (called DCR) (BRCA‐mutated tumors): 68%
- objective response rate (ORR) (BRCA‐mutated tumors): 40%
- median change in CA‐125 level from baseline ([3]; all patients, range: −97.8% to +155.2%): −18.8%
- patients achieving CA‐125 response ([3]; ovarian (n = 14) or primary peritoneal cancer (n = 1)): 20%
- DCR ([4]; GOG‐280 study, germline BRCA1 or BRCA2 mutation): 74.0%
- patients with objective response ([4]; n = 50, 90% CI: 16–38%): 26%
- CR (number of patients) ([4]; n = 50): 2
- PR (number of patients) ([4]; n = 50): 11
- median progression‐free survival ([4]; phase 2 monotherapy): 8.2 months
- objective responses ([4]; platinum‐resistant patients, n = 6/30, 90% CI: 9–36%): 20%
- objective responses ([4]; platinum‐sensitive patients, n = 7/20, 90% CI: 18–56%): 35%
- Best response: CR (advanced solid tumors; 200 mg BID (n = 4)): 0 n (%)
- Best response: Not evaluable (advanced solid tumors; 200 mg BID (n = 4)): 1 (25.0) n (%)
- Best response: PD (advanced solid tumors; 200 mg BID (n = 4)): 1 (25.0) n (%)
- Best response: PR (advanced solid tumors; 200 mg BID (n = 4)): 1 (25.0) n (%)
- Best response: Stable disease (advanced solid tumors; 200 mg BID (n = 4)): 1 (25.0) n (%)
- DCR (CR + PR + stable disease) (advanced solid tumors; 200 mg BID (n = 4)): 2 (50.0) n (%)
- ORR (advanced solid tumors; 200 mg BID (n = 4), 95% CI 0.6–80.6): 1 ^§ (25.0) [0.6–80.6] %
- Median TTP (advanced solid tumors; 200 mg dose cohort): 106 (range, 17–226) days
- Best response: CR (advanced solid tumors; 400 mg BID (n = 10)): 0 n (%)
- Best response: Not evaluable (advanced solid tumors; 400 mg BID (n = 10)): 0 n (%)
- Best response: PD (advanced solid tumors; 400 mg BID (n = 10)): 2 (20.0) n (%)
- Best response: PR (advanced solid tumors; 400 mg BID (n = 10)): 1 (10.0) n (%)
- Best response: Stable disease (advanced solid tumors; 400 mg BID (n = 10)): 7 (70.0) n (%)
- DCR (CR + PR + stable disease) (advanced solid tumors; 400 mg BID (n = 10)): 8 (80.0) n (%)
- ORR (advanced solid tumors; 400 mg BID (n = 10), 95% CI 0.3–44.5): 1 ^¶ (10.0) [0.3–44.5] %
- Median TTP (advanced solid tumors; 400 mg dose cohort): 170 (range, 48–340) days
- disease control overall (advanced solid tumors; 12 of 16 patients): 75%
- patients progressed at first tumor assessment (advanced solid tumors; [8]): 21.4%
- patients with best objective response stable disease (advanced solid tumors; [8]): eight patients
- patients with best objective response PR (advanced solid tumors; 14 patients with measurable disease, both with platinum sensitive ovarian cancer): Two patients
- patients who discontinued treatment due to disease progression (advanced solid tumors; all 16 patients): 75%
- median percentage change from baseline in the sum of the tumor sizes of target lesions (advanced solid tumors; all patients, range, −46.8% to +50.0%): −10.3%
- disease control rate (DCR, CR + PR + stable disease) (advanced solid tumors; patients with measurable disease (10/14)): 71.4%
- Median TTP (advanced solid tumors; platinum sensitive ovarian or peritoneal cancer, 400 mg BID, range, 48–340): 218 days
- Best response: CR (advanced solid tumors; total (n = 14)): 0 n (%)
- Best response: Not evaluable (advanced solid tumors; total (n = 14)): 1 (7.1) n (%)
- Best response: PD (advanced solid tumors; total (n = 14)): 3 (21.4) n (%)
- Best response: PR (advanced solid tumors; total (n = 14)): 2 (14.3) n (%)
- Best response: Stable disease (advanced solid tumors; total (n = 14)): 8 (57.1) n (%)
- DCR (CR + PR + stable disease) (advanced solid tumors; total (n = 14)): 10 (71.4) n (%)
- ORR (advanced solid tumors; total (n = 14), 95% CI 1.8–42.8): 14.3%
- ORR (advanced solid tumors; total (n = 14), 95% CI 1.8–42.8, listed as Veliparib): 2 (14.3) [1.8–42.8] %
- best objective response (advanced solid tumors; two patients without measurable disease at baseline): non‐CR/non‐PD
